Data: PubChem BioAssay AID1963870 (Molecular Pharmacology Branch, DTP, NCI, 2024)

System: 292921-168-R-J2-PDC KRAS tumor spheroid viability
Assay: Anticancer human tumor 292921-168-R-J2-PDC patient-derived pancreatic carcinoma cell line growth inhibition [KRAS2]
Conditions: spheroids with HUVEC and MSC; for IC50: curve of first compound; for viability, T/C: stronger effect = lower value
Description: Multicellular complex tumor spheroid response to RAS pathway inhibitors in combination with a targeted agents in patient-derived cell lines with oncogenic KRAS variants from multiple cancer types
A high-throughput screen of multi-cell type tumor spheroids was designed to identify active combinations of targeted small molecules and KRAS pathway inhibitors. Complex spheroids include a stromal component modeled by human endothelial cells (HUVEC) and fibroblasts modeled by human mesenchymal stem cells (MSCs). The concentration ranges selected for each drug and investigational agent were based upon clinically achievable concentrations if the clinical Cmax of the agent was known.
Compounds. The drugs and investigational agents: BI-3406 (NSC825286), BAY-293 (NSC824723), batoprotafib (TNO155; NSC825523), sotorasib (AMG 510; NSC818433), MRTX1257 (NSC819558), elimusertib (BAY 1895344; NSC800525), molibresib (GSK525762; NSC774829), temuterkib (LY3214996; NSC803410), venetoclax (NSC766270), alisertib (NSC759677), olaparib (NSC753686), talazoparib (NSC767125), erdafitinib (NSC781556), ipatasertib (NSC767898), cabozantinib (NSC761068), nintedanib (NSC756659), abemaciclib (NSC768073), docetaxel (NSC628503), trametinib (NSC758246), and sapanisertib (NSC764658) were obtained from the National Cancer Institute (NCI) Developmental Therapeutics Program Chemical Repository. The FDA-approved anticancer drug set is available from the Developmental Therapeutics Program. […] The stock solutions were prepared in dimethyl sulfoxide (DMSO, Sigma-Aldrich, St. Louis, MO, cat. D2650) at 800-fold the tested concentration and stored at -70 degrees C prior to their use. All drugs and investigational agents were tested over a range starting from a high concentration at or near the clinical Cmax and decreasing in half-log increments. If the clinical Cmax for an agent had not been determined, the highest concentration tested was 10 microM.
Cell Culture. All cells were maintained in an incubator at 37 degrees C and 5% CO2 with 95% humidity. The PDC lines were cultured according to standard operating procedures established by the NCI PDMR (https://pdmr.cancer.gov/sops/default.htm). Briefly, all PDCs were thawed and cultured in Matrigel-coated flasks prepared with a working solution of 1X Ham's F-12 nutrient mix, without supplementation (Invitrogen, Waltham, MA, cat. 11765054), 100 U/mL penicillin-streptomycin (Invitrogen, cat. 15140122), and 2.5% Matrigel (Corning Inc., Corning, NY, cat. 354248) for the first three passages. All PDCs were cultured in complete DMEM/F-12 media containing advanced DMEM/F-12 (Invitrogen, cat. 12634028), 4.9% defined fetal bovine serum, heat inactivated (HyClone Laboratories Inc., Logan, UT, cat. SH30070.03HI), 389 ng/mL hydrocortisone (Sigma-Aldrich, cat. H4001), 9.7 ng/mL human EGF recombinant protein (Invitrogen, cat. PHG0313), 23.4 microg/mL adenine (Sigma-Aldrich, cat. A2786), 97.3 U/mL penicillin-streptomycin (Invitrogen, cat. 15140122), 1.9 mM L-glutamine (Invitrogen, cat. 25030081), and 9.7 microM Y-27632 dihydrochloride (Tocris Bioscience, Bristol, United Kingdom, cat. 1254). The PDCs were cultured in complete DMEM/F12 media without 9.7 microM Y-27632 dihydrochloride for at least two passages prior to the screen. The established cell line HOP-62 was cultured in RPMI 1640 medium, HEPES (Invitrogen, cat. 22400105) with 10% defined fetal bovine serum (HyClone Laboratories Inc., cat. SH30070.03) and 2 mM L-glutamine (Invitrogen, cat. 25030081). The pooled donor HUVEC were cultured in endothelial cell growth medium 2 (PromoCell, Heidelberg, Germany, cat. C-22011) and the hMSC were cultured in mesenchymal stem cell growth medium 2 (PromoCell, cat. C-28009). For all experiments, HUVEC and hMSC were used at passages </=5, while the malignant cell lines were used at passages </=15. […]

[1] = second compound 0.1 µM, first compound 0.0316 µM
[2] = second compound 0.316 µM, first compound 0.0316 µM
[3] = second compound 1 µM, first compound 0.0316 µM
[4] = second compound 3.16 µM, first compound 0.0316 µM
[5] = second compound 10 µM, first compound 0.0316 µM
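Further: drug exposure lasted seven days after spheroids formed for three days.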
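Wherever viability, T/C is given: percent of DMSO vehicle control viability which is 100%.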

CC(=O)Nc1cccc(-n2c(=O)n(C3CC3)c(=O)c3c(Nc4ccc(I)cc4F)n(C)c(=O)c(C)c32)c1 + CNCc1ccccc1-c1csc(C(C)Nc2nc(C)nc3cc(OC)c(OC)cc23)c1
IC50 (second compound 0.1 µM): 0.207 nM | IC50 (second compound 0.316 µM): 0.178 nM | IC50 (second compound 1 µM): 0.124 nM | IC50 (second compound 3.16 µM): < 0.1 nM | IC50 (second compound 10 µM): < 0.1 nM | viability, T/C (second compound 0.1 µM, first compound 0.0001 µM): 66% | viability, T/C (second compound 0.1 µM, first compound 0.000316 µM): 41.9% | viability, T/C (second compound 0.1 µM, first compound 0.001 µM): 20.2% | viability, T/C (second compound 0.1 µM, first compound 0.00316 µM): 17.5% | viability, T/C (second compound 0.1 µM, first compound 0.01 µM): 12% | viability, T/C [1]: 8.12% | viability, T/C (second compound 0.316 µM, first compound 0.0001 µM): 64.5% | viability, T/C (second compound 0.316 µM, first compound 0.000316 µM): 35.3% | viability, T/C (second compound 0.316 µM, first compound 0.001 µM): 21.8% | viability, T/C (second compound 0.316 µM, first compound 0.00316 µM): 16.3% | viability, T/C (second compound 0.316 µM, first compound 0.01 µM): 12.3% | viability, T/C [2]: 8.64% | viability, T/C (second compound 1 µM, first compound 0.0001 µM): 55% | viability, T/C (second compound 1 µM, first compound 0.000316 µM): 28.2% | viability, T/C (second compound 1 µM, first compound 0.001 µM): 17.9% | viability, T/C (second compound 1 µM, first compound 0.00316 µM): 13.7% | viability, T/C (second compound 1 µM, first compound 0.01 µM): 10.4% | viability, T/C [3]: 8.11% | viability, T/C (second compound 3.16 µM, first compound 0.0001 µM): 0.21% | viability, T/C (second compound 3.16 µM, first compound 0.000316 µM): 0.07% | viability, T/C (second compound 3.16 µM, first compound 0.001 µM): 0.05% | viability, T/C (second compound 3.16 µM, first compound 0.00316 µM): 0.04% | viability, T/C (second compound 3.16 µM, first compound 0.01 µM): 0.04% | viability, T/C [4]: 0.15% | viability, T/C (second compound 10 µM, first compound 0.0001 µM): 0.11% | viability, T/C (second compound 10 µM, first compound 0.000316 µM): 0.11% | viability, T/C (second compound 10 µM, first compound 0.001 µM): 0.11% | viability, T/C (second compound 10 µM, first compound 0.00316 µM): 0.12% | viability, T/C (second compound 10 µM, first compound 0.01 µM): 0.12% | viability, T/C [5]: 0.2%

CC(C)NCC(C(=O)N1CCN(c2ncnc3c2C(C)CC3O)CC1)c1ccc(Cl)cc1 (stereo not given) + C=CC(=O)N1CCN(c2nc(=O)n(-c3c(C)ccnc3C(C)C)c3nc(-c4c(O)cccc4F)c(F)cc23)C(C)C1
IC50 (second compound 0.1 µM): > 10000 nM | IC50 (second compound 0.316 µM): > 10000 nM | IC50 (second compound 1 µM): 6050 nM | IC50 (second compound 3.16 µM): 1640 nM | IC50 (second compound 10 µM): < 31.6 nM | viability, T/C [1]: 95.3% | viability, T/C (second compound 0.1 µM, first compound 0.1 µM): 91.2% | viability, T/C (second compound 0.1 µM, first compound 0.316 µM): 88.1% | viability, T/C (second compound 0.1 µM, first compound 1 µM): 86.3% | viability, T/C (second compound 0.1 µM, first compound 3.16 µM): 79.4% | viability, T/C (second compound 0.1 µM, first compound 10 µM): 50.9% | viability, T/C [2]: 96.3% | viability, T/C (second compound 0.316 µM, first compound 0.1 µM): 96.2% | viability, T/C (second compound 0.316 µM, first compound 0.316 µM): 85.7% | viability, T/C (second compound 0.316 µM, first compound 1 µM): 81.1% | viability, T/C (second compound 0.316 µM, first compound 3.16 µM): 67.4% | viability, T/C (second compound 0.316 µM, first compound 10 µM): 52.7% | viability, T/C [3]: 92.7% | viability, T/C (second compound 1 µM, first compound 0.1 µM): 82.3% | viability, T/C (second compound 1 µM, first compound 0.316 µM): 76.1% | viability, T/C (second compound 1 µM, first compound 1 µM): 75.8% | viability, T/C (second compound 1 µM, first compound 3.16 µM): 63.8% | viability, T/C (second compound 1 µM, first compound 10 µM): 39.8% | viability, T/C [4]: 51.9% | viability, T/C (second compound 3.16 µM, first compound 0.1 µM): 63.9% | viability, T/C (second compound 3.16 µM, first compound 0.316 µM): 58.7% | viability, T/C (second compound 3.16 µM, first compound 1 µM): 53.1% | viability, T/C (second compound 3.16 µM, first compound 3.16 µM): 44.4% | viability, T/C (second compound 3.16 µM, first compound 10 µM): 25.9% | viability, T/C [5]: 18.6% | viability, T/C (second compound 10 µM, first compound 0.1 µM): 22.1% | viability, T/C (second compound 10 µM, first compound 0.316 µM): 17.8% | viability, T/C (second compound 10 µM, first compound 1 µM): 15.3% | viability, T/C (second compound 10 µM, first compound 3.16 µM): 18.3% | viability, T/C (second compound 10 µM, first compound 10 µM): 11.8%
